Type in all cases: in vivo
One test relates to rice (Oryra sativa). As to the kind of experiment: Test B flooded paddy test. The following applies: Oryza sativa, Flood, 250 g ai/ha, read-out: Rice plant response rating. The procedure, abridged: (§1)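 Visual ratings (0 none to 100 complete control) are relative to untreated plants, taken 13–15 d after treatment in a greenhouse. Test material went straight into floodwater standing 3 cm above the soil, kept constant, on plants at the 2-leaf stage.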

Test [1] deals with barnyardgrass (Echinochloa crus-galli). As to the kind of experiment: Test B flooded paddy test. The following applies: Echinochloa crus-galli, Flood, 250 g ai/ha, read-out: Barnyardgrass plant response rating. The procedure, abridged: as §1
Test [2] concerns ducksalad (Heteranthera limosa). As to the kind of experiment: Test B flooded paddy test. To be noted: Heteranthera limosa, Flood, 250 g ai/ha, read-out: Ducksalad plant response rating. The procedure, abridged: as §1
The subject of test [3] is sedge, umbrella (small-flower umbrella sedge, Cyperus difformis). Description: Test B flooded paddy test. The following applies: Cyperus difformis, Flood, 250 g ai/ha, read-out: Sedge, Umbrella plant response rating. In outline: as §1
The subject of test [4] is pigweed (Amaranthus retroflexus). As to the kind of experiment: Test A postemergence. The following applies: Amaranthus retroflexus, post-emergence, 240 h; for pest or weed control at 125 g/ha: 125 g ai/ha; for pest or weed control at 500 g/ha: 500 g ai/ha. The procedure, abridged: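 Preemergence soil spray on seeded pots or post-emergence spray on 1–2 leaf plants, in loam–sand blend. Greenhouse ~10 d. Visual rating 0–100 against untreated plants.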

Where [5] appears, read: scale of 0 to 100 where 0 is no effect and 100 is complete control.
Where [6] appears, read: postemergence, visual injury rating after approximately 10 d, read-out: Pigweed plant response rating (0 to 100 scale, 0 no effect, 100 complete control).
Setting [7] is: Postemergence, visual injury after approximately 10 d, 0 to 100 scale where 0 is no effect and 100 is complete control, read-out: Plant response rating, Pigweed.
[8] abbreviates: 0 to 100 scale where 0 is no effect and 100 is complete control.
Setting [9] is: postemergence, visual injury on 0 to 100 scale (0 no effect, 100 complete control), approx. 10 d, read-out: Pigweed plant response rating.
[10] abbreviates: postemergence, 0 to 100 scale, 0 is no effect, 100 is complete control, read-out: Pigweed plant response rating.
Setting [11] is: postemergence, visual injury, 0 to 100 scale (0 no effect, 100 complete control), approx. 10 d, read-out: Plant response rating, Pigweed.

This passage reports pest or weed control results from US12077503B2, “Substituted cyclic amides and their use as herbicides” (FMC CORPORATION, priority 2015, dated 2024).

Like-named read-outs stand apart in the source and are kept apart here.

Regarding `COc1c(F)ccc([C@H]2CNC(=O)[C@@H]2C(=O)Nc2ccc(F)cc2F)c1Cl` [Compound 883], the pest or weed control at 250 g/ha in the test on rice (Oryra sativa) (setting [5]) stood at 20%; in test [1] (setting [5]) it was 0%; in test [2] (setting [5]), 80%; in test [3] (setting [5]), 0%. The pest or weed control at 125 g/ha in test [4] (setting [6]) came to 0%.

For `CN1C[C@H](c2cc(F)cc(Cl)c2)[C@@H](C(=O)Nc2ccccc2S(C)(=O)=O)C1=O` [Compound 979], the pest or weed control at 250 g/ha with rice (Oryra sativa) (setting [5]) was determined as 0%; in test [1] (setting [5]) it was 60%; in test [2] (setting [5]), 100%; in test [3] (setting [5]), 0%. Further, the pest or weed control at 125 g/ha in test [4] (setting [7]) was found to be 40%.

In the case of `CN1C[C@H](c2cc(F)cc(C(F)(F)F)c2)[C@@H](C(=O)Nc2ccc(F)c(F)c2F)C1=O` [Compound 993], the pest or weed control at 250 g/ha in the test on rice (Oryra sativa) (setting [5]) was 40%; in test [1] (setting [5]) it was 70%; in test [2] (setting [5]) it was 85%; in test [3] (setting [8]), 60%. The pest or weed control at 125 g/ha in test [4] (setting [7]) is 30%.

In the case of `CCOc1cccc([C@H]2CN(C)C(=O)[C@@H]2C(=O)Nc2cccc(F)c2F)c1` [Compound 956], the pest or weed control at 250 g/ha stood at 0% in the test on rice (Oryra sativa) (setting [5]), 70% in test [1] (setting [5]), 100% in test [2] (setting [5]) and 0% in test [3] (setting [5]). For the same molecule, the pest or weed control at 125 g/ha in test [4] (setting [7]) came to 0%.

For `O=C1NC[C@H](c2ccc3c(c2)CCC3)[C@H]1C(=O)Nc1cccc(F)c1F` [Compound 1046], the pest or weed control at 250 g/ha in the test on rice (Oryra sativa) (setting [8]) turned out to be 0%; in test [1] (setting [8]), 60%; in test [2] (setting [8]), 100%; in test [3] (setting [8]), 0%. Besides, the pest or weed control at 125 g/ha in test [4] (setting [9]) worked out at 0%.

Take `O=C1NC[C@H](c2ccc(F)c(OC(F)(F)C(F)F)c2)[C@H]1C(=O)Nc1cccc(F)c1F` [Compound 1131]: the pest or weed control at 250 g/ha stood at 30% in the test on rice (Oryra sativa) (setting [8]), 60% in test [1] (setting [8]), 70% in test [2] (setting [8]) and 0% in test [3] (setting [8]). Also, the pest or weed control at 125 g/ha in test [4] (setting [9]) is 50%. In addition, in test [4] (setting [10]), the pest or weed control at 500 g/ha was 80%.

Consider `Cc1cc([C@H]2CNC(=O)[C@@H]2C(=O)Nc2ccccc2F)ccc1C(F)(F)F` [Compound 1042], for which the pest or weed control at 250 g/ha with rice (Oryra sativa) (setting [8]) was 0%; in test [1] (setting [8]), 30%; in test [2] (setting [8]) it was 75%; in test [3] (setting [8]) it was 0%. Moreover, the pest or weed control at 125 g/ha in test [4] (setting [9]) is 20%.

`Cc1ccc([C@H]2CNC(=O)[C@@H]2C(=O)Nc2cccc(F)c2F)cc1C` [Compound 1034]: the pest or weed control at 250 g/ha with rice (Oryra sativa) (setting [8]) was 0%; in test [1] (setting [8]), 60%; in test [2] (setting [8]) it was 100%; in test [3] (setting [8]), 0%. Moreover, the pest or weed control at 125 g/ha in test [4] (setting [9]) worked out at 0%. The pest or weed control at 500 g/ha in test [4] (setting [11]) was 0%.

Regarding `CN1C[C@H](c2cc(C(F)F)cs2)[C@@H](C(=O)Nc2ccccc2F)C1=O` [Compound 1120], the pest or weed control at 250 g/ha with rice (Oryra sativa) (setting [8]) worked out at 20%; in test [1] (setting [8]), 65%; in test [2] (setting [8]) it was 100%; in test [3] (setting [8]) it was 0%. The pest or weed control at 125 g/ha in test [4] (setting [9]) stood at 0%. Moreover, in test [4] (setting [10]), the pest or weed control at 500 g/ha stood at 20%.

On to `CN1C[C@H](c2ccc3c(c2)OCO3)[C@@H](C(=O)Nc2cccc(F)c2F)C1=O` [Compound 1126], for which the pest or weed control at 250 g/ha came to 0% in the test on rice (Oryra sativa) (setting [8]), 75% in test [1] (setting [8]), 100% in test [2] (setting [8]) and 0% in test [3] (setting [8]). Further, the pest or weed control at 125 g/ha in test [4] (setting [9]) was determined as 0%. Also, the pest or weed control at 500 g/ha in test [4] (setting [10]) stood at 30%.

Turning to `Cc1cc([C@H]2CN(C)C(=O)[C@@H]2C(=O)Nc2ccccc2S(C)(=O)=O)ccc1Cl` [Compound 944], the pest or weed control at 250 g/ha in the test with rice (Oryra sativa) (setting [5]) was determined as 0%; in test [1] (setting [5]), 40%; in test [2] (setting [5]), 75%; in test [3] (setting [5]) it was 0%. Further, the pest or weed control at 125 g/ha in test [4] (setting [7]) stood at 30%.

For the molecule `Cc1ccc([C@H]2CN(C)C(=O)[C@@H]2C(=O)Nc2cccc(F)c2F)cc1Cl` [Compound 1013], the pest or weed control at 250 g/ha with rice (Oryra sativa) (setting [8]) is 70%; in test [1] (setting [8]) it was 55%; in test [2] (setting [8]) it was 100%; in test [3] (setting [8]) it was 100%. For the same molecule, the pest or weed control at 125 g/ha in test [4] (setting [7]) came out at 0%. Also, in test [4] (setting [11]), the pest or weed control at 500 g/ha turned out to be 40%.

In the case of `COc1c(F)ccc([C@H]2CN(C)C(=O)[C@@H]2C(=O)Nc2ccccc2F)c1Cl` [Compound 892], the pest or weed control at 250 g/ha in the test on rice (Oryra sativa) (setting [5]) turned out to be 0%; in test [1] (setting [5]), 65%; in test [2] (setting [5]), 80%; in test [3] (setting [5]), 0%. In addition, the pest or weed control at 125 g/ha in test [4] (setting [6]) was 0%.

Regarding `CN1C[C@H](c2cc(F)cc(F)c2)[C@@H](C(=O)Nc2cnccc2Cl)C1=O` [Compound 1096], the pest or weed control at 250 g/ha was 0% in the test with rice (Oryra sativa) (setting [8]), 0% in test [1] (setting [8]), 65% in test [2] (setting [8]) and 0% in test [3] (setting [8]). The pest or weed control at 125 g/ha in test [4] (setting [9]) worked out at 0%. Moreover, in test [4] (setting [10]), the pest or weed control at 500 g/ha turned out to be 0%.

With `Cc1cc([C@H]2CNC(=O)[C@@H]2C(=O)Nc2ccccc2Cl)ccc1C(F)(F)F` [Compound 1044], the pest or weed control at 250 g/ha (in the test on rice (Oryra sativa) (setting [8]); in test [1] (setting [8]); in test [2] (setting [8]); in test [3] (setting [8])) was 0% throughout. For the same molecule, the pest or weed control at 125 g/ha in test [4] (setting [9]) stood at 30%.

In the case of `Cc1c(F)ccc([C@H]2CN(C)C(=O)[C@@H]2C(=O)Nc2ccc(F)cc2F)c1F` [Compound 835], the pest or weed control at 250 g/ha with rice (Oryra sativa) (setting [5]) was determined as 20%; in test [1] (setting [5]) it was 50%; in test [2] (setting [5]) it was 70%; in test [3] (setting [5]), 0%. Moreover, the pest or weed control at 125 g/ha in test [4] (setting [6]) is 20%.

Regarding `Cc1cc(C)cc([C@H]2CNC(=O)[C@@H]2C(=O)Nc2ccccc2F)c1` [Compound 888], the pest or weed control at 250 g/ha with rice (Oryra sativa) (setting [5]) is 0%; in test [1] (setting [5]), 70%; in test [2] (setting [5]) it was 75%; in test [3] (setting [5]) it was 0%. The pest or weed control at 125 g/ha in test [4] (setting [6]) was 0%.

For the molecule `COc1c(F)ccc([C@H]2CN(C)C(=O)[C@@H]2C(=O)Nc2ccc(F)c(F)c2F)c1Cl` [Compound 895], the pest or weed control at 250 g/ha in the test on rice (Oryra sativa) (setting [5]) stood at 0%; in test [1] (setting [5]), 75%; in test [2] (setting [5]) it was 85%; in test [3] (setting [5]) it was 0%. Moreover, the pest or weed control at 125 g/ha in test [4] (setting [6]) was 40%.

For `CCOc1cc([C@H]2CN(C)C(=O)[C@@H]2C(=O)Nc2cccc(F)c2F)cc(C(F)(F)F)c1` [Compound 971], the pest or weed control at 250 g/ha amounted to 45% in the test on rice (Oryra sativa) (setting [5]), 60% in test [1] (setting [5]), 85% in test [2] (setting [5]) and 0% in test [3] (setting [5]). In addition, the pest or weed control at 125 g/ha in test [4] (setting [7]) stood at 50%. For the same molecule, in test [4] (Postemergence, 31 g ai/ha, visual injury after approx. 10 d, 0 to 100 scale, 0 no effect, 100 complete control, read-out: Plant response rating, Pigweed), the pest or weed control at 31 g/ha was found to be 20%.

As for `O=C1NC[C@H](c2ccc3c(c2)OCO3)[C@H]1C(=O)Nc1cccc(F)c1C(F)(F)F` [Compound 1127], the pest or weed control at 250 g/ha amounted to 0% with rice (Oryra sativa) (setting [8]), 0% in test [1] (setting [8]), 100% in test [2] (setting [8]) and 0% in test [3] (setting [8]). The pest or weed control at 125 g/ha in test [4] (setting [9]) came to 0%. The pest or weed control at 500 g/ha in test [4] (setting [10]) turned out to be 0%.
